From PMC5045412, “Inhibition of pro-HGF activation by SRI31215, a novel approach to block oncogenic HGF/MET signaling” (Oncotarget, 2016)

Columns and labels:
Format in all cases: biochemical
recombinant human HGFA = target: T1, recombinant human HGFA (Homo sapiens, UniProt Q04756); assay: Proteolytic activation of pro-HGF by HGFA (immunoblotting); details: SRI 31215 10 μM, HAI-1 20 nM, HGFA 1 nM
T1 construct: purchased R&D Systems
T1 sequence (Q04756 408-655 limits assumed): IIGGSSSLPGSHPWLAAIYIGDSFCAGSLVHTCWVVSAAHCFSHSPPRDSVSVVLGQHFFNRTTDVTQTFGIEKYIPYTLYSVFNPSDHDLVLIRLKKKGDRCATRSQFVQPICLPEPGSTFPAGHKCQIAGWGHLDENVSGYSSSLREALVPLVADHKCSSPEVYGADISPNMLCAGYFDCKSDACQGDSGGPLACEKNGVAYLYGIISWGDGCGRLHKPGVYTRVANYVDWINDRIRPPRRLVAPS
T1 sequence (Q04756 373-407 partner limits assumed): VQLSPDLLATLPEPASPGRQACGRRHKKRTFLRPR
Procedure: Recombinant human HAI-1, recombinant human HGFA, and recombinant human HGF propeptide (pro-HGF) were purchased from R&D Systems. SRI 31215 (10 μM) or recombinant human HAI-1 (20 nM) were mixed with activated recombinant human HGFA pro-peptide (1nM) in TNC buffer (pH 8.0) and incubated at room temperature for 30 minutes. Recombinant human pro-HGF (40 ng) was added and incubated at 37°C for 1 hour. The reaction was stopped by SDS-PAGE gel sample buffer and samples were boiled and separated by 12% PAGE. Proteins were transferred onto nitrocellulose membrane, blocked with 5% milk and immunoblotted using antibodies that recognize pro-HGF as well as α and β chains of activated HGF.

HGFA = target: T2, HGFA (Homo sapiens, UniProt Q04756); assay: Protease panel, FRET peptide substrate
T2 construct: purchased R&D Systems
T2 sequence (Q04756 373-655): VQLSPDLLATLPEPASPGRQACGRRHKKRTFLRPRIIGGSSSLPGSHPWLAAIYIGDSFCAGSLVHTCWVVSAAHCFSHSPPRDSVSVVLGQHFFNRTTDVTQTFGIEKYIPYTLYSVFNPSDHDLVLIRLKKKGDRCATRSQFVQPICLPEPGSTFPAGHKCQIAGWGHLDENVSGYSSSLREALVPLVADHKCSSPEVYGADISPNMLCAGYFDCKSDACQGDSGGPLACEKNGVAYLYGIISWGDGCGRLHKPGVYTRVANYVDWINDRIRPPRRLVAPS
Procedure: (§1) The inhibitory activity of SRI 31215 was tested in a panel of six proteases, which included matriptase, hepsin, HGFA, trypsin, thrombin and coagulation factor Xa. All six enzymes were purchased from R&D Systems. The assay buffer used was 50 mM Tris, 20 mM NaCl, 0.01% Tween 20, pH 8.0. The substrate was a custom FRET peptide based on the pro-HGF cleavage sequence (H2N-(EEdans)GKQLRVVNGG(KDabcyl)-amide) pre- pared by New England Peptide. All measurements were made using an Aminco-Bowman Series 2 Luminescence Spectrometer.

matriptase = target: T3, matriptase (Homo sapiens, UniProt Q9Y5Y6); assay: Protease panel, FRET peptide substrate
T3 construct: purchased R&D Systems
T3 sequence (Q9Y5Y6 1-855): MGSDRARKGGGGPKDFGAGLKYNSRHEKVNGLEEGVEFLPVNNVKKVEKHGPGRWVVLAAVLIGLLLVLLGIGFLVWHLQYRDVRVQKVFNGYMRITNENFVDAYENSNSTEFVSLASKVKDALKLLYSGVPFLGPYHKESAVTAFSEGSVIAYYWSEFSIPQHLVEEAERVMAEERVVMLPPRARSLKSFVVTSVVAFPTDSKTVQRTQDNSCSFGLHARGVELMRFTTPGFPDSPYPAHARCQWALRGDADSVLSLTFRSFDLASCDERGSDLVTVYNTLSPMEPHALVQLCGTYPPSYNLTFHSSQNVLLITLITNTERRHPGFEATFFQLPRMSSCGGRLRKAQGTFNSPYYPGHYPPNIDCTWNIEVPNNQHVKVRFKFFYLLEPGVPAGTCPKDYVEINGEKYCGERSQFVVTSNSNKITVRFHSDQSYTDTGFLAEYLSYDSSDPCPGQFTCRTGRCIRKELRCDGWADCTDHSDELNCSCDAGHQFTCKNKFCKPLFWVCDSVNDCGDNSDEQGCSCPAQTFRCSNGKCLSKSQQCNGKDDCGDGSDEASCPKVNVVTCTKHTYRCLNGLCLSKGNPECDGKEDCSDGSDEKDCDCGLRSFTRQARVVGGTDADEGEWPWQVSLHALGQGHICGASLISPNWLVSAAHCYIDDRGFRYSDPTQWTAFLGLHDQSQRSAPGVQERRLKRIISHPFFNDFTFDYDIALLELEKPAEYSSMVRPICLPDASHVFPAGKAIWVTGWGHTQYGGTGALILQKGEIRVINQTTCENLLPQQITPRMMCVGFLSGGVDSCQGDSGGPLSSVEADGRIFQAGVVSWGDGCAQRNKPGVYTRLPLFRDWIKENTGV
Procedure: as §1

trypsin = assay: Protease panel, FRET peptide substrate
Procedure: as §1

thrombin = target: T4, thrombin (Homo sapiens, UniProt P00734); assay: Protease panel, FRET peptide substrate
T4 construct: purchased R&D Systems
Procedure: as §1

hepsin = target: T5, hepsin (Homo sapiens, UniProt P05981); assay: Protease panel, FRET peptide substrate
T5 construct: purchased R&D Systems
T5 sequence (P05981 whole entry): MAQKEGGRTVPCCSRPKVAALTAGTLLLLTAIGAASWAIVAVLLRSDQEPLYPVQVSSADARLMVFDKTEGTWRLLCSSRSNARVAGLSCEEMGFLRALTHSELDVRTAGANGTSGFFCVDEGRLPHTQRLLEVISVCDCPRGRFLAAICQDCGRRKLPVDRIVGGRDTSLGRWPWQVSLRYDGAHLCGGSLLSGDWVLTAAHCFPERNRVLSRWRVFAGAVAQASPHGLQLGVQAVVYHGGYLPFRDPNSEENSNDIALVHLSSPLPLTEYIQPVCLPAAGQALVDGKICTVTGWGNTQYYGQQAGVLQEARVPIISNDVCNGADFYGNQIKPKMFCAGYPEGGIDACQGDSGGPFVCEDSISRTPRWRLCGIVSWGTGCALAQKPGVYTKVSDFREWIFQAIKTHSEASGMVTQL
Procedure: as §1

CC1CN(CC2CCN(Cc3ccccc3)CC2)C(=O)N(c2cccc(C(=N)N)c2)C1 (stereo not drawn) [SRI 31215, 3-(3-((1-benzylpiperidin-4-yl)methyl)-5-methyl-2-oxotetrahydropyrimidin-1(2H)-yl)benzimidamide]
HGFA-induced cleavage of pro-HGF into alpha and beta chains (recombinant human HGFA): inhibited
IC50 (HGFA): 300 nM
IC50 (matriptase): 690 nM
selectivity for trypsin (trypsin): acceptable
selectivity for thrombin (thrombin): acceptable
IC50 (hepsin): 650 nM
